# Assays:
# dogs [1] = assay: Virginiamycin dose trial in dogs fed tinned dog food with added raftilose (faecal measurements); format: in vivo; set-up: faecal Dry matter / faecal Total VFA: unit not given here; settings: for faecal pH: raftilose diet; for faecal Consistency score: 5 = firm, normal faeces and 1 = diarrhoea
# Description: The main objective of this trial was to investigate various doses of virginiamycin in terms of its effect on faecal consistency and hind gut fermentation.
# Design: There were 4 treatment groups consisting of unmedicated control, and virginiamycin at 3 levels: 0.25, 0.5 and 1 mg/kg body weight. Dogs were acclimatised to a dict based on the tinned ‘No Frills’ dog food for approximately 2 weeks prior to a seven-day treatment period in which fructo-oligosaccharide raftilose was added to the diet at a rate of 3.5 g/kg metabolic body weight. There were five dogs per treatment.
# Measurements were made of faecal pH, dry matter, consistency and chemical assays were conducted to measure VFA, D-lactic acid and L-lactic acid.
# dogs [2] = assay: Faecal characteristics of dog fed dry dog food with virginiamycin; format: in vivo; settings: one dog, virginiamycin 0.5 mg/kg body weight for 7 days
# Description: Two dogs were fed a commercial dry dog food for 4 weeks before and then during the experimental period. Virginiamycin (Eskalin 20) was added to the diet of one dog for a period of 7 days prior to faecal sampling to provide 0.5 mg/kg body weight. Samples of faeces were taken for the analysis of pH and lactic acid concentrations at the same time as those taken for isolation of lactic acid producing bacteria.
# [3] = tested on: Clostridium-like vitulinus (LV R1); assay: Virginiamycin sensitivity test (broth growth); format: cell-based; settings: Basal Medium 10 with glucose (0.5%)
# Description: (§1) Two isolates of S. bovis from cattle and sheep (orange pigmented and white), five Clostridium-like vitulinus and three isolates of S. ruminantium were incubated in a branch of basal medium 10 with glucose (0.5%) and virginiamycin (VM) at a concentrations of 0, 2, 4, 6 and 8 μg/ml. The virginiamycin solution (100 μg VM/ml) was prepared using Eskalin Wettable Powder (WP), 400 g/kg VM (Pfizer Animal Health, NSW, Australia). The WP was dissolved in distilled water (previously boiled and bubbled with nitrogen until cooled) and filter-sterilised whilst being gassed with nitrogen. This solution was used immediately after preparation. […] The broth-media was inoculated by 0.2 ml of the different fresh viable cultures and 0.1–0.4 ml of VM solution was added to each tube to provide the required dose. A sensitivity test was also performed when VM was added 3 and 6 h after inoculation, using the same concentrations of VM. Tests for sensitivity to VM were conducted using […] of anaerobic incubation at 39° C.
# [4] = tested on: Clostridium-like vitulinus (LV R5); assay: Virginiamycin sensitivity test (broth growth); format: cell-based; settings: Basal Medium 10 with glucose (0.5%)
# Description: as §1
# [5] = tested on: Clostridium-like vitulinus (LV R4); assay: Virginiamycin sensitivity test (broth growth); format: cell-based; settings: Basal Medium 10 with glucose (0.5%)
# Description: as §1
# [6] = tested on: Clostridium-like vitulinus (LV R2); assay: Virginiamycin sensitivity test (broth growth); format: cell-based; settings: Basal Medium 10 with glucose (0.5%)
# Description: as §1
# [7] = tested on: S. ruminantium (SR R1, SR R2 and SR R3); assay: Virginiamycin sensitivity test (broth growth); format: cell-based; settings: Basal Medium 10 with glucose (0.5%)
# Description: as §1
# [8] = tested on: Clostridium-like vitulinus (LV R3); assay: Virginiamycin sensitivity test (broth growth); format: cell-based; settings: Basal Medium 10 with glucose (0.5%)
# Description: as §1
# [9] = tested on: Clostridium-like isolates; assay: Virginiamycin sensitivity test, VM added 3 and 6 h after inoculation; format: cell-based, Clostridium-like vitulinus
# Description: as §1
# [10] = VM 0.25, 0.5 and 1 mg/kg body weight
substance,measurement,setting,value
virginiamycin,faecal D-lactic acid concentration,dogs [1]; VM 0.25 mg/kg body weight,0.2
same,faecal Dry matter,dogs [1]; VM 0.25 mg/kg body weight,22.0
same,faecal L-lactic acid concentration,dogs [1]; VM 0.25 mg/kg body weight,2.2
same,faecal Total VFA,dogs [1]; VM 0.25 mg/kg body weight,80.5
same,faecal pH,dogs [1]; VM 0.25 mg/kg body weight,5.2
same,faecal Consistency score,dogs [1]; VM 0.25 mg/kg,3.6
same,faecal D-lactic acid concentration,dogs [1]; VM 0.5 mg/kg body weight,0.4
same,faecal Dry matter,dogs [1]; VM 0.5 mg/kg body weight,22.5
same,faecal L-lactic acid concentration,dogs [1]; VM 0.5 mg/kg body weight,13.8
same,faecal Total VFA,dogs [1]; VM 0.5 mg/kg body weight,93.7
same,faecal pH,dogs [1]; VM 0.5 mg/kg body weight,4.9
same,faecal Consistency score,dogs [1]; VM 0.5 mg/kg,3.7
same,faecal D-lactic acid concentration,dogs [1]; VM 1.0 mg/kg body weight,0.3
same,faecal Dry matter,dogs [1]; VM 1.0 mg/kg body weight,24.2
same,faecal L-lactic acid concentration,dogs [1]; VM 1.0 mg/kg body weight,11.8
same,faecal Total VFA,dogs [1]; VM 1.0 mg/kg body weight,73.5
same,faecal pH,dogs [1]; VM 1.0 mg/kg body weight,4.9
same,faecal Consistency score,dogs [1]; VM 1.0 mg/kg,3.8
same,effect on L-lactic,dogs [1]; [10],little effect
same,"effect on the pH, faecal consistency, dry matter content and VFA concentrations",dogs [1]; [10],little effect
same,effect on concentration of d-lactic acid,dogs [1]; all levels of inclusion,reduce the concentration of d-lactic acid
same,D(−)Lactate in faeces,dogs [2],0.45 mmol/L
same,L(+)Lactate in faeces,dogs [2],0.34 mmol/L
same,faecal pH,dogs [2],5.34
same,MIC level,[3],2 µg/mL
same,MIC level,[4],2 µg/mL
same,VM level the isolate resisted up to,[5],6 µg/mL
same,VM level the isolate resisted up to,[6],4 µg/mL
same,highest VM level to which isolates were resistant,[7],8 µg/mL
same,VM level the isolate resisted up to,[8],4 µg/mL
same,MIC compared with VM added immediately after inoculation,[9]; cultures growing 3 h before addition of VM,higher MIC
same,highest VM level to which isolates were resistant,"[9]; cultures grown 6 h before addition of VM, all Clostridium-like isolates",8 µg/mL

# Reference: US7011826B1, “Control of acidosis” (priority 1999, dated 2006)
